# The Kinase Knowledgebase extract (Sharma et al. 2016)
# Biological target: EGFR (human) (UniProt P00533)
# Conditions: a431
# Sequence of EGFR (human) (P00533 whole entry, looked up): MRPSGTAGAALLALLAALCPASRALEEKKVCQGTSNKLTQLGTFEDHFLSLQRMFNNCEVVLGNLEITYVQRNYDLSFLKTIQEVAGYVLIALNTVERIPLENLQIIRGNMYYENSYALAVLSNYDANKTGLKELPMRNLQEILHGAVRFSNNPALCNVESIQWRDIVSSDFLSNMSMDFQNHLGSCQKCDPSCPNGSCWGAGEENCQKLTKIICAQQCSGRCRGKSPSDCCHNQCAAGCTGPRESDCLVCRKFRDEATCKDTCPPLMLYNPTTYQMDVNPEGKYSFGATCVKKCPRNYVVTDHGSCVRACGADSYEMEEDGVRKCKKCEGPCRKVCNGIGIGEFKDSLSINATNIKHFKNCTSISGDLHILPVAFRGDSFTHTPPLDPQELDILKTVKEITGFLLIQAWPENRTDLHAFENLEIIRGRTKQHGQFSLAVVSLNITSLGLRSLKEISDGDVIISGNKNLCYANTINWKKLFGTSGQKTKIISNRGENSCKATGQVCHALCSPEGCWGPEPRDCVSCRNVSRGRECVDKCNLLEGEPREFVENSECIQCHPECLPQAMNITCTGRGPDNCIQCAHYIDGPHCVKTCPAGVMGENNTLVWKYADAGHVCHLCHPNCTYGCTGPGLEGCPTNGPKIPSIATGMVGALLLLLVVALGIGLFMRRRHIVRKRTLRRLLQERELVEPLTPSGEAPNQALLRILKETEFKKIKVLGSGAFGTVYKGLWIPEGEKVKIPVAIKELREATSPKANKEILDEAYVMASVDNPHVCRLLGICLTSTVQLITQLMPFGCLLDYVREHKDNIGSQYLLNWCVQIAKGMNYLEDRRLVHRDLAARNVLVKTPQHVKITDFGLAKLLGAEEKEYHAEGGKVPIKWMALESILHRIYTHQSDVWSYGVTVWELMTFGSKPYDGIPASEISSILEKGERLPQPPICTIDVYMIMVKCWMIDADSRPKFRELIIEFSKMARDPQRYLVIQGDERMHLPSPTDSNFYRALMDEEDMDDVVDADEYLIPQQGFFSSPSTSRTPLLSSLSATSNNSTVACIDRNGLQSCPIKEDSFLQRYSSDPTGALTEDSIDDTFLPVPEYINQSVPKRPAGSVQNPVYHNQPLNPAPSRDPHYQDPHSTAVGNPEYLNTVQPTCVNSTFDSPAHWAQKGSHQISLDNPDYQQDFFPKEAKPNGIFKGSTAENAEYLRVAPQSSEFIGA
row,SMILES,IC50 [nM]
1,CCN(CC)CCN1CCc2[nH]c(C=C3C(=O)Nc4ccc(NC=O)cc43)c(C)c2C1=O,840
2,CCN(CC)CCN1CCc2[nH]c(C=C3C(=O)Nc4cc(NC=O)c(F)cc43)c(C)c2C1=O,370
3,Cc1c(C=C2C(=O)Nc3cc(NC(=O)CO)c(F)cc32)[nH]c2c1C(=O)N(CCN1CCCCC1)CC2,1250
4,CCN(CC)CCN1CCc2[nH]c(C=C3C(=O)Nc4c(NC=O)cc(F)cc43)c(C)c2C1=O,1380
5,CCN(CC)CCN1CCc2[nH]c(C=C3C(=O)Nc4cccc(CCO)c43)c(C)c2C1=O,3850
6,O=C(CO)Nc1cc2c(cc1F)C(=Cc1[nH]c3c(c1-c1ccc(F)cc1)C(=O)NCC3)C(=O)N2,3060
7,CCN(CC)CCN1CCc2[nH]c(C=C3C(=O)Nc4ncnc(Nc5ccc(F)c(Cl)c5)c43)c(C)c2C1=O,67
8,Cc1c(C=C2C(=O)Nc3cc(N)c(F)cc32)[nH]c2c1C(=O)N(CCN1CCCC1)CC2,10700
9,CCN(CC)CCN1CCc2[nH]c(C=C3C(=O)Nc4ccc(Br)cc43)c(C)c2C1=O,1260
10,Cc1c(C=C2C(=O)Nc3cc(NCc4ccc(F)cc4)c(F)cc32)[nH]c2c1C(=O)N(CCN1CCCCC1)CC2,340
11,Cc1c(C=C2C(=O)Nc3ccc(NC=O)cc32)[nH]c2c1C(=O)N(CCN1CCCCC1)CC2,120
12,CCN(CC)CCN1CCc2[nH]c(C=C3C(=O)Nc4ccc(-c5ccc(OC)cc5)cc43)c(C)c2C1=O,3890
13,CCN(CC)CCN1CCc2[nH]c(C=C3C(=O)Nc4ccc(Cl)cc43)c(C)c2C1=O,1040
14,CCN(CC)CCN1CCc2[nH]c(C=C3C(=O)Nc4ccc(F)cc43)c(C)c2C1=O,1090
15,Cc1c(C=C2C(=O)Nc3ncc(Br)cc32)[nH]c2c1C(=O)N(CCN1CCOCC1)CC2,15900
16,Cc1c(C=C2C(=O)Nc3ncc(Br)cc32)[nH]c2c1C(=O)N(CCN1CCCCC1)CC2,1660
17,COCC(=O)Nc1cc2c(cc1F)C(=Cc1[nH]c3c(c1-c1ccc(F)cc1)C(=O)NCC3)C(=O)N2,2030
18,CCN(CC)CCN1CCc2[nH]c(C=C3C(=O)Nc4c(NC(C)=O)cc(F)cc43)c(C)c2C1=O,1380
19,CCN(CC)CCN1CCc2[nH]c(C=C3C(=O)Nc4cccc(Br)c43)c(C)c2C1=O,330
20,Cc1c(C=C2C(=O)Nc3cccc(C4CCNCC4)c32)[nH]c2c1C(=O)N(CCN1CCCC1)CC2,590
21,CCN(CC)CCN1CCc2[nH]c(C=C3C(=O)Nc4c(N)cc(F)cc43)c(C)c2C1=O,12600
22,CCN(CC)CCN1CCc2[nH]c(C=C3C(=O)Nc4cccc(C5CCNCC5)c43)c(C)c2C1=O,350
23,Cc1c(C=C2C(=O)Nc3c(Br)cc(F)cc32)[nH]c2c1C(=O)N(CCN1CCCCC1)CC2,270
24,CCN(CC)CCN1CCc2[nH]c(C=C3C(=O)Nc4cc(N)c(F)cc43)c(C)c2C1=O,10500
25,CCN(CC)CCN1CCc2[nH]c(C=C3C(=O)Nc4ccc(OC)cc43)c(C)c2C1=O,4350
26,CCN(CC)CCN1CCc2[nH]c(C=C3C(=O)Nc4cc(NC(C)=O)c(F)cc43)c(C)c2C1=O,9290

# Results, then the molecule that gave them:
row,IC50 [nM],SMILES
1,3230,CCN(CC)CCN1CCc2[nH]c(C=C3C(=O)Nc4cccc(-c5ccc(Cl)cc5F)c43)c(C)c2C1=O
2,380,CCN(CC)CCN1CCc2[nH]c(C=C3C(=O)Nc4cccc(-c5cccc(F)c5F)c43)c(C)c2C1=O
3,7320,CCN(CC)CCN1CCc2[nH]c(C=C3C(=O)Nc4cccc(-c5cccc(Cl)c5F)c43)c(C)c2C1=O
4,16500,Cc1c(C=C2C(=O)Nc3cccc(CCO)c32)[nH]c2c1C(=O)N(CCN1CCOCC1)CC2
5,200,Cc1c(C=C2C(=O)Nc3cccc(Br)c32)[nH]c2c1C(=O)N(CCN1CCCC1)CC2
6,13800,Cc1c(C=C2C(=O)Nc3cccc(-c4cccc(Cl)c4F)c32)[nH]c2c1C(=O)N(CCN1CCCC1)CC2
7,1310,Cc1c(C=C2C(=O)Nc3ccc(F)cc32)[nH]c2c1C(=O)N(CCN1CCCC1)CC2
8,530,Cc1c(C=C2C(=O)Nc3cccc(-c4c(F)cccc4F)c32)[nH]c2c1C(=O)N(CCN1CCCCC1)CC2
9,180,Cc1c(C=C2C(=O)Nc3cccc(-c4cccc(F)c4)c32)[nH]c2c1C(=O)N(CCN1CCCCC1)CC2
10,1900,Cc1c(C=C2C(=O)Nc3cccc(C4CCNCC4)c32)[nH]c2c1C(=O)N(CCN1CCOCC1)CC2
11,2190,Cc1c(C=C2C(=O)Nc3cccc(-c4cccc(F)c4F)c32)[nH]c2c1C(=O)N(CCN1CCCC1)CC2
12,330,Cc1c(C=C2C(=O)Nc3ncnc(Nc4ccc(F)c(Cl)c4)c32)[nH]c2c1C(=O)N(CCN1CCOCC1)CC2
13,2850,Cc1c(C=C2C(=O)Nc3ccc(NS(C)(=O)=O)cc32)[nH]c2c1C(=O)N(CCN1CCOCC1)CC2
14,1350,Cc1c(C=C2C(=O)Nc3ccc(F)cc32)[nH]c2c1C(=O)N(CCN1CCOCC1)CC2
15,1680,Cc1c(C=C2C(=O)Nc3cccc(CCO)c32)[nH]c2c1C(=O)N(CCN1CCCC1)CC2
16,10200,Cc1c(C=C2C(=O)Nc3ccc(Cl)cc32)[nH]c2c1C(=O)N(CCN1CCOCC1)CC2
17,6110,Cc1c(C=C2C(=O)Nc3cccc(-c4cccc(Cl)c4F)c32)[nH]c2c1C(=O)N(CCN1CCOCC1)CC2
